This experiment deals with T1, TRAP1 enzyme (Homo sapiens, UniProt Q12931).
T1 sequence (Q12931 60-704): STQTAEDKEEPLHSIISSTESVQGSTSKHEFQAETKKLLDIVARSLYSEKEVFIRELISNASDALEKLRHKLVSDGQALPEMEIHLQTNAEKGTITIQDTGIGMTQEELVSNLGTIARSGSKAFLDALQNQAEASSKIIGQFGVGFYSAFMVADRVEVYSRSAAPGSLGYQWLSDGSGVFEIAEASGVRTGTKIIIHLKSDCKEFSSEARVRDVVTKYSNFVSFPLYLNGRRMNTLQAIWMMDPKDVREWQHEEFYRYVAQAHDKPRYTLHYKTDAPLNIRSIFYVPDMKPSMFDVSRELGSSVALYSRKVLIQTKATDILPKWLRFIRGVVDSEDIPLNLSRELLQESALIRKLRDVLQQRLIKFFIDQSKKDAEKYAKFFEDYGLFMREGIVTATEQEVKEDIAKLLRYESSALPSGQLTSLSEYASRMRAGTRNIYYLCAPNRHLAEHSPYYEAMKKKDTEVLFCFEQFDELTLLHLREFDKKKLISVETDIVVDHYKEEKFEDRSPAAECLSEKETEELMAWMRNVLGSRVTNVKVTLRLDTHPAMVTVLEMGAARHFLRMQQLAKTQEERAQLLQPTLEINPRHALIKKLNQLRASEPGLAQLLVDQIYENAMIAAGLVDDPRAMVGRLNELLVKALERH
As to the kind of experiment: ADP Glo assay (ATPase activity of TRAP1). Conditions: for EC50: 150 nM Trap1, 20 µM ATP, concentration for half maximal activation, read-out: ADP GLO DRC: GeoMean EC50; for Emax: maximal percent activation, read-out: ADP GLO DRC: Mean Emax. It counts as biochemical. The method, then:
Potency of test compounds to modulate the ATPase activity of TRAP1 enzyme was evaluated using ADP Glo assay. The assay is based on quantification of the ADP generated from ATP in the ATPase reaction. The assay is performed in two steps; first, after the ATPase reaction, an equal volume of ADP-Glo™ Reagent is added to terminate the ATPase reaction and deplete the remaining ATP. Second, the Kinase Detection Reagent is added to simultaneously convert ADP to ATP and allow the newly synthesized ATP to be measured using a luciferase/luciferin reaction.
All the assays were carried out in a 384-well Proxiplate. The buffer used was 25 mM Pipes pH-7.5, 40 mM KCl, 0.05 mM MgCl2, 0.025 % BSA, 0.316 mM EGTA, 0.003% Empigen, 0.01% Igepal. 150 nM Trap1 enzyme was incubated with various concentrations of the test compound (0.79 µM - 100 µM) at 37° C. for 30 mins (except in blank wells). 20 µM ATP was added to each well to start the reaction. The plate was spun for 1 min at 1200 rpm and then incubated at 37° C. for 60 mins. 5 µl of ADP Glo reagent was added to all the wells and spun the plate for 1 min at 1200 rpm and kept it on a shaker at ambient temperature for 60 mins. 10 µl of kinase detection mix was added to all the wells and the plate was read for Luminescence at 495 nm. The amount of ADP released was estimated from ATP/ADP standard curve generated at the same experimental conditions. Emax (Maximal percent activation) and EC50 (concentration for half maximal activation ) were estimated by fitting the dose response data to a sigmoidal curve fitting equation using Graphpad Prism software V. 8.

Each structure is given as a SMILES string.

On to `O=C(Nc1ccc2c(c1)S(=O)(=O)N(c1ccc(C(F)(F)F)cc1)CCO2)c1cnc[nH]1` [Compound 2075, N-(1,1-Dioxido-2-(4-(Trifluoromethyl) Phenyl)-3,4-Dihydro-2H-Benzo [b] [1,4,5] Oxathiazepin-8-yl)-1H-Imidazole-5-Carboxamide], for which the EC50 was 20 to 30 µM and the Emax was in the range of 150 to 200%.
On the same counts, the results for `Cn1nc(C(=O)Nc2ccc3c(c2)S(=O)(=O)N(c2ccc(C(F)(F)F)cc2)CCO3)ccc1=O` [Compound 2228] are 20 to 30 µM and 129 to 149%.
For `COc1cccnc1C(=O)Nc1ccc2c(c1)S(=O)(=O)N(c1ccc(C(F)(F)F)cc1)CCO2` [Compound 2288], the EC50 was less than 20 µM and the Emax was 150 to 200%.
On the same counts, the results for `Cc1ocnc1C(=O)Nc1ccc2c(c1)S(=O)(=O)N(c1ccc(F)cc1)CCO2` [Compound 2375, N-(2-(4-fluorophenyl)-1,1-dioxido-3,4-dihydro-2H-benzo[b][1,4,5]oxathiazepin-8-yl)-5-methyloxazole-4-carboxamide] are 30 to 100 µM and 150 to 200%.
On the same counts, the results for `Cc1ncc(C(=O)Nc2ccc3c(c2)S(=O)(=O)N(c2ccc(C(F)(F)F)cc2)CCO3)c(C)n1` [Compound 2236] are 30 to 100 µM and 150 to 200%.
Regarding `COc1cnccc1C(=O)Nc1ccc2c(c1)S(=O)(=O)N(c1ccc(C(F)(F)F)cc1)CCO2` [Compound 2209], the EC50 lay in the range of 20 to 30 µM and the Emax is 129 to 149%.
Regarding `O=C(Nc1ccc2c(c1)S(=O)(=O)N(c1ccc(C(F)(F)F)cc1)CCO2)c1csc2c1CNCC2` [Compound 2433], the EC50 was in the range of 30 to 100 µM and the Emax was more than 200%.
As to `O=C(Nc1ccc2c(c1)S(=O)(=O)N(c1ccc(C(F)(F)F)cc1)CCO2)c1cnc(-c2ccccc2)[nH]1` [Compound 2423], the EC50 is less than 20 µM and the Emax lay within 129 to 149%.
For `Cc1nnccc1C(=O)Nc1ccc2c(c1)S(=O)(=O)N(c1ccc(C(F)(F)F)cc1)CCO2` [Compound 2242] the same measures were 30 to 100 µM and more than 200%.
`Cc1cnc(C(=O)Nc2ccc3c(c2)S(=O)(=O)N(c2ccc(C(F)(F)F)cc2)CCO3)nc1` [Compound 2210]: the EC50 was less than 20 µM and the Emax was 150 to 200%.
For the compound `Cc1ccncc1C(=O)Nc1ccc2c(c1)S(=O)(=O)N(c1ccc(C(F)(F)F)cc1)CCO2` [Compound 1212, N-(1,1-Dioxido-2-(4-(Trifluoromethyl)Phenyl)-3,4-Dihydro-2H-Benzo[b][1,4,5]Oxathiazepin-8-yl)-4-Methylnicotinamide], the EC50 is 20 to 30 µM and the Emax fell in the range of 150 to 200%.
For `O=C(Nc1ccc2c(c1)S(=O)(=O)N(c1ccc(C(F)(F)F)cc1)CCO2)c1cscn1` [Compound 2184], the concentration giving a half-maximal response (EC50) is less than 20 µM and the Emax was 129 to 149%.
In the case of `CCn1cncc1C(=O)Nc1ccc2c(c1)S(=O)(=O)N(c1ccc(C(F)(F)F)cc1)CCO2` [Compound 2213], the EC50 is less than 20 µM and the Emax is 150 to 200%.
Take `Cc1cncc(C(=O)Nc2ccc3c(c2)S(=O)(=O)N(c2ccc(C(F)(F)F)cc2)CCO3)c1` [Compound 2191]: the EC50 was less than 20 µM and the maximal response (Emax) was in the range of 150 to 200%.
For the compound `O=C(Nc1ccc2c(c1)S(=O)(=O)N(c1ccc(C(F)(F)F)cc1)CCO2)c1cccnn1` [Compound 2224], the EC50 is 30 to 100 µM and the Emax was in the range of 150 to 200%.
In the case of `COc1cc(C(=O)Nc2ccc3c(c2)S(=O)(=O)N(c2ccc(C(F)(F)F)cc2)CCO3)n(C)n1` [Compound 2222], the EC50 was less than 20 µM and the Emax lay in the range of 150 to 200%.
On the same counts, the results for `Cn1cccc(C(=O)Nc2cnc3c(c2)S(=O)(=O)N(c2ccc(C(F)(F)F)cc2)CCO3)c1=O` [Compound 2462] are 20 to 30 µM and 150 to 200%.
As to `Cc1ncoc1C(=O)Nc1ccc2c(c1)S(=O)(=O)N(c1ccc(Cl)cc1)CCO2` [Compound 1210, N-(2-(4-chlorophenyl)-1,1-Dioxido-3,4-Dihydro-2H-Benzo[b][1,4,5]Oxathiazepin-8-yl)-4-Methyloxazole-5-Carboxamide], the concentration giving a half-maximal response (EC50) lay within 30 to 100 µM and the Emax was more than 200%.
For `O=C(Nc1ccc2c(c1)S(=O)(=O)N(c1ccc(C(F)(F)F)cc1)CCO2)c1ccnc(CO)c1` [Compound 2290], the EC50 lay within 30 to 100 µM and the Emax was more than 200%.
On the same counts, the results for `Cc1ccncc1C(=O)Nc1ccc2c(c1)S(=O)(=O)N(c1ccc(Cl)cc1)CCO2` [Compound 1209, N-(2-(4-chlorophenyl)-1,1-Dioxido-3,4-Dihydro-2H-Benzo[b][1,4,5] Oxathiazepin-8-yl)-4-Methylnicotinamide] are 30 to 100 µM and 150 to 200%.
For `CC(C)c1scnc1C(=O)Nc1ccc2c(c1)S(=O)(=O)N(c1ccc(C(F)(F)F)cc1)CCO2` [Compound 2085, N-(1,1-Dioxido-2-(4-(Trifluoromethyl)phenyl)-3,4-Dihydro-2H-Benzo[b][1,4,5]Oxathiazepin-8-yl)-5-Isopropylthiazole-4-Carboxamide] the same measures were 30 to 100 µM and 150 to 200%.
On the same counts, the results for `Cc1cc(C(=O)Nc2ccc3c(c2)S(=O)(=O)N(c2ccc(C(F)(F)F)cc2)CCO3)ccn1` [Compound 2172] are 20 to 30 µM and 150 to 200%.
As for `CC(C)n1cnc(C(=O)Nc2ccc3c(c2)S(=O)(=O)N(c2ccc(C(F)(F)F)cc2)CCO3)n1` [Compound 2258], the EC50 lay in the range of 20 to 30 µM and the Emax lay in the range of 129 to 149%.
On to `Cn1cccc(C(=O)Nc2ccc3c(c2)S(=O)(=O)N(c2ccc(C(F)(F)F)cc2)CCO3)c1=O` [Compound 2268], for which the EC50 is less than 20 µM and the Emax was in the range of 150 to 200%.
As to `COc1ncncc1C(=O)Nc1ccc2c(c1)S(=O)(=O)N(c1ccc(C(F)(F)F)cc1)CCO2` [Compound 2245], the EC50 lay within 20 to 30 µM and the Emax is 129 to 149%.
Consider `Cc1nc(C)c(C(=O)Nc2ccc3c(c2)S(=O)(=O)N(c2ccc(C(F)(F)F)cc2)CCO3)s1` [Compound 2248], for which the EC50 lay within 30 to 100 µM and the Emax lay in the range of 150 to 200%.
Turning to `O=C(Nc1ccc2c(c1)S(=O)(=O)N(c1ccc(C(F)(F)F)cc1)CCO2)c1ccccn1` [Compound 2197], the EC50 fell in the range of 30 to 100 µM and the Emax was 129 to 149%.
For `O=C(Nc1ccc2c(c1)S(=O)(=O)N(c1ccc(C(F)(F)F)cc1)CCO2)c1csc(CO)n1` [Compound 2305] the same measures were 20 to 30 µM and 129 to 149%.
In the case of `Cc1ncoc1C(=O)Nc1ccc2c(c1)S(=O)(=O)N(c1ccc(C(F)(F)F)cc1)CCO2` [Compound 1190, N-(1,1-Dioxido-2-(4-(Trifluoromethyl)Phenyl)-3,4-Dihydro-2H-benzo[b][1,4,5]Oxathiazepin-8-yl)-4-Methyloxazole-5-Carboxamide], the EC50 was less than 20 µM and the Emax was 150 to 200%.
For `Cc1noc(C)c1C(=O)Nc1ccc2c(c1)S(=O)(=O)N(c1ccc(C(F)(F)F)cc1)CCO2` [Compound 2181] the same measures were less than 20 µM and 129 to 149%.
On to `Cc1nn(C)cc1C(=O)Nc1ccc2c(c1)S(=O)(=O)N(c1ccc(C(F)(F)F)cc1)CCO2` [Compound 2219], for which the concentration giving a half-maximal response (EC50) lay in the range of 30 to 100 µM and the Emax was more than 200%.
For `CN1CCCC1C(=O)Nc1ccc2c(c1)S(=O)(=O)N(c1ccc(C(F)(F)F)cc1)CCO2` (stereo not shown) [Compound 2417], the concentration giving a half-maximal response (EC50) lay within 30 to 100 µM and the Emax was 150 to 200%.
Take `Cc1ocnc1C(=O)N(C)c1ccc2c(c1)S(=O)(=O)N(c1ccc(C(F)(F)F)cc1)CCO2` [Compound 2449]: the EC50 was in the range of 30 to 100 µM and the Emax is 150 to 200%.
With `Cn1ccc(=O)cc1C(=O)Nc1ccc2c(c1)S(=O)(=O)N(c1ccc(C(F)(F)F)cc1)CCO2` [Compound 2516], the EC50 was in the range of 30 to 100 µM and the Emax is more than 200%.
Consider `Cn1nncc1C(=O)Nc1ccc2c(c1)S(=O)(=O)N(c1ccc(C(F)(F)F)cc1)CCO2` [Compound 2226], for which the EC50 is 30 to 100 µM and the maximal response (Emax) was 150 to 200%.

The record behind these values is US20230218632A1, “CYCLIC SULFONAMIDE DERIVATIVES AS TRAP1 MODULATORS AND USES THEREOF” (Amathus Therapeutics, Inc., priority 2020, published 2023).
